Reference: patent publication US12275734B1, “Pleuromutilin onium salt derivative containing a 3H-imidazo[4,5-c]pyridine side chain, and a preparation method and application thereof” (SHAANXI UNIVERSITY OF SCIENCE AND TECHNOLOGY, priority 2024, dated 2025)
≈ marks a conversion by molar mass, not a printed value. Like-named read-outs stand apart in the source and are kept apart here.

Key:
Type in all cases: cell-based
[1] = system: HepG2 Cells; assay: Cytotoxicity, Cell Counting Kit-8
Method: (§1) Cell Counting Kit-8 was used to evaluate the cytotoxicity of the compounds.
(§2) (4) Cell culture: HepG2, HEK293 and A549 cells were evenly dispersed in culture medium, seeded into 96-well plates, and cultured under appropriate environmental conditions to keep the cells completely attached to the well walls.
(§3) (5) Compound treatment: Add different concentrations of compounds I-8 and I-9 to each well (the concentrations are 0.78, 1.56, 3.13, 6.25, 12.5, 25, 50 and 100 μM, respectively, and perform 6 parallel experiments). Set up a blank control group and a normal control group. After incubation for 24 hours, observe the cell condition, which observed under a microscope.
(§4) (6) CCK-8 solution treatment: Add CCK-8 solution to each well and incubate for 4 hours to allow it to react with the cells.
(§5) (7) Absorbance determination: Use a full-wavelength scanning multifunctional reader, place the 96-well plate in the instrument, oscillate to mix to make the color evenly distributed, and measure the absorbance value at 490 nm.
(§6) (8) Data analysis: Based on the measured absorbance values, the cell survival rate at different concentrations can be calculated. The median cytotoxic concentration was used to evaluate the cytotoxicity of the compound to A549, HEK293 and HepG2 cells.

[2] = system: HEK293 Cells; assay: Cytotoxicity, Cell Counting Kit-8
Method: as §1, §2, §3, §4, §5, §6

[3] = system: A549 Cells; assay: Cytotoxicity, Cell Counting Kit-8
Method: as §1, §2, §3, §4, §5, §6

[4] = system: A. baumannii ATCC 19606; assay: MIC, broth microdilution; conditions: Acinetobacter baumannii
Procedure, shortened: (§7)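 Broth microdilution in Mueller–Hinton broth: compounds two-fold serially diluted from a 2560 μg/mL stock (1% DMSO), inoculum 5×10^5 CFU/mL final from log-phase cultures, incubation 37 °C for 24 h. MIC taken as the lowest concentration inhibiting growth.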

[5] = system: E. coli ATCC 25922; assay: MIC, broth microdilution; conditions: Escherichia coli
Procedure, shortened: as §7

[6] = system: E.coli CMCC 44103; assay: MIC, broth microdilution; conditions: Escherichia coli
Procedure, shortened: as §7

[7] = system: Methicillin-resistant S. aureus ATCC 43300; assay: MIC, broth microdilution; conditions: Staphylococcus aureus, ATCC 43300 / MRSA, read-out: Minimum inhibitory concentration MRSA^c
Procedure, shortened: as §7

[8] = system: S. enterica ATCC14028; assay: MIC, broth microdilution; conditions: Salmonella enterica
Procedure, shortened: as §7

[9] = system: Methicillin-resistant S. aureus ATCC 33591; assay: MIC, broth microdilution; conditions: Staphylococcus aureus, ATCC 33591 / MRSA, read-out: Minimum inhibitory concentration MRSA^b
Procedure, shortened: as §7

[10] = system: Methicillin-resistant S. epidermidis ATCC 51625; assay: MIC, broth microdilution; conditions: Staphylococcus epidermidis, ATCC 51625 / MRSE, read-out: Minimum inhibitory concentration MRSE^e
Procedure, shortened: as §7

[11] = system: S. aureus ATCC 29213; assay: MIC, broth microdilution; conditions: Staphylococcus aureus
Procedure, shortened: as §7

[12] = system: carbapenem-resistant Acinetobacter baumannii-882; assay: MIC, clinical isolates
Method: (§8) The minimum inhibitory concentration of 3H-imidazo[4,5-C]pyridine pleuromutilin onium salt derivatives against the tested pathogenic microorganisms were determined by broth microdilution method, with valnemulin and retapamulin as positive controls.
(§9) The experimental strains included resistant Gram-positive bacteria: Methicillin-resistant S. aureus ATCC 33591; Methicillin-resistant S. aureus ATCC 43300; S. aureus ATCC 29213; Methicillin-resistant S. epidermidis ATCC 51625. Resistant Gram-negative bacteria: A. baumannii ATCC 19606; S. enterica ATCC14028; E. coli ATCC 25922; E. coli CMCC 44103. 9 clinically isolated resistant strains: MRSA-171; MRSA-575; MRSA-206; MRSA-222; MRSA-596; VRE-80; MDR-PA-126; MDR-KP-893; CR-AB-882.
(§10) (1) Preparation of MHB medium: Weigh 18.0 g of MHB medium pre-made powder, add it to 1 L of distilled water, heat and boil until completely dissolved, divide it into conical bottles, sterilize it by high pressure at 121° C. for 15 minutes, and set aside.
(§11) (2) Cultivate the experimental strain to the logarithmic growth phase: Under sterile conditions, inoculate the experimental strain into fresh MHB medium and culture it in a 37° C. constant temperature and humidity incubator for 16-24 hours. Adjust the bacterial solution concentration to 1.5×10^8 CFU/mL and then dilute it 200 times for later use.
(§12) (3) Preparation of storage solution: Weigh the sample to be tested, dissolve it in 1% DMSO solution, and prepare a storage solution with a concentration of 2560 μg/mL; weigh the positive control, dissolve it in sterile distilled water, and prepare a storage solution with a concentration of 2560 μg/mL.
(§13) (4) Preparation of bacterial suspension: Under sterile conditions, the experimental strain cultured to the logarithmic growth phase was calibrated to a 0.5 McFarland unit turbidity standard using MHB medium and then diluted at a ratio of 1:200 to prepare a bacterial suspension with a concentration of 5×10^5 CFU/mL for later use.
(§14) (5) Determination of MIC by two-fold microdilution method: Take a sterile 96-well plate, add 10 μL of the test compound at a concentration of 2560 μg/mL, and perform serial dilutions by the two-fold dilution method. At the same time, set up a negative control group without drug. Then add 190 μL of diluted bacterial solution to each well, so that the final bacterial solution concentration in each well is 5×10^5 CFU/mL, and incubate in a 37° C. constant temperature and humidity chamber for 24 hours.

[13] = system: methicillin-resistant Staphylococcus aureus-596; assay: MIC, clinical isolates
Method: as §8, §9, §10, §11, §12, §13, §14

[14] = system: methicillin-resistant Staphylococcus aureus-206; assay: MIC, clinical isolates
Method: as §8, §9, §10, §11, §12, §13, §14

[15] = system: methicillin-resistant Staphylococcus aureus-575; assay: MIC, clinical isolates
Method: as §8, §9, §10, §11, §12, §13, §14

[16] = system: methicillin-resistant Staphylococcus aureus-171; assay: MIC, clinical isolates
Method: as §8, §9, §10, §11, §12, §13, §14

[17] = system: methicillin-resistant Staphylococcus aureus-222; assay: MIC, clinical isolates; conditions: MRSA / MRSE
Method: as §8, §9, §10, §11, §12, §13, §14

In the case of C=C[C@]1(C)C[C@@H](OC(=O)CSc2nc3cc[n+](Cc4ccc(C)cc4)cc3[nH]2)[C@]2(C)[C@H](C)CC[C@]3(CCC(=O)[C@H]32)[C@@H](C)[C@@H]1O [Compound i, 5-(4-methylbenzyl)-2-((2-(((3aR,4R,5R,7S,8S,9R,9aS,12R)-8-hydroxy-4,7,9,12-tetramethyl-3-oxo-7-vinyldecahydro-4,9a-propancyclopenta[8]cyclo-5-yl)oxy)-2-oxoethyl)thio)-3H-imidazo[4,5-C]pyridine-5-ium], the CC50 ([1]; CCK-8, 24 hours incubation, read-out: CC50 HepG2 Cells) is reported as greater than 100 µM, the CC50 ([2]; CCK-8, 24 hours incubation, read-out: CC50 HEK293 Cells) is reported as 96.4 µM and the CC50 ([3]; CCK-8, 24 hours incubation, read-out: CC50 A549 Cells) is reported as greater than 100 µM. For the same compound, the MIC ([4]; ATCC19606, A. baumannii ATCC 19606, read-out: Minimum inhibitory concentration A.b.^f) was 0.25 µg/mL, the MIC ([5]; ATCC25922, E. coli ATCC 25922, read-out: Minimum inhibitory concentration E.c.^h) was 0.125 µg/mL and the MIC ([6]; CMCC44103, E.coli CMCC 44103, read-out: Minimum inhibitory concentration E.c.^i) was 0.125 µg/mL. For the same compound, the MIC ([7]; Methicillin-resistant S. aureus ATCC 43300) was 0.0625 µg/mL, the MIC ([8]; S. enterica ATCC14028, read-out: Minimum inhibitory concentration S.e.^g) was 0.25 µg/mL and the MIC ([9]; Methicillin-resistant S. aureus ATCC 33591) was 0.125 µg/mL. For the same compound, the MIC ([10]; Methicillin-resistant S. epidermidis ATCC 51625) was 0.0625 µg/mL, the MIC ([11]; ATCC29213, S. aureus ATCC 29213, read-out: Minimum inhibitory concentration S.a.^d) was 0.0625 µg/mL and the MIC ([12]; clinical isolate CR-AB-882, read-out: Antibacterial activity (MIC) CR-AB^j) was 4 µg/mL. It also gave an MIC ([13]; clinical isolate MRSA-596, read-out: Antibacterial activity (MIC) MRSA^f) of 2 µg/mL, an MIC ([14]; clinical isolate MRSA-206, read-out: Antibacterial activity (MIC) MRSA^d) of 1 µg/mL and an MIC ([15]; clinical isolate MRSA-575, read-out: Antibacterial activity (MIC) MRSA^c) of 1 µg/mL. For the same compound, the MIC ([16]; clinical isolate MRSA-171, read-out: Antibacterial activity (MIC) MRSA^b) was 4 µg/mL and the MIC ([17]; clinical isolate MRSA-222, read-out: Antibacterial activity (MIC) MRSE^e) was 4 µg/mL.
Work on C=C[C@]1(C)C[C@@H](OC(=O)CS[C@@H]2C[C@H]3CC[C@@H](C2)N3C)[C@]2(C)[C@H](C)CC[C@]3(CCC(=O)[C@H]32)[C@@H](C)[C@@H]1O [Retapamulin, reference compound] yielded a CC50 ([1]; human, 24 h) of 61.1 µM, a CC50 ([2]; human, 24 h) of 57.5 µM and a CC50 ([3]; human, 24 h) of 71.5 µM. The MIC ([4]; ATCC19606, read-out: Minimum inhibitory concentration A.b.^f) was 4 µg/mL (≈ 7.73 µM), the MIC ([5]; ATCC25922, read-out: Minimum inhibitory concentration E.c.^h) was 32 µg/mL (≈ 61.8 µM) and the MIC ([6]; CMCC44103, read-out: Minimum inhibitory concentration E.c.^i) was 32 µg/mL (≈ 61.8 µM). It also gave an MIC [7] of 16 µg/mL (≈ 30.9 µM), an MIC ([8]; ATCC14028, read-out: Minimum inhibitory concentration S.e.^g) of 128 µg/mL (≈ 247 µM) and an MIC [9] of 32 µg/mL (≈ 61.8 µM). For the same compound, the MIC [10] was 32 µg/mL (≈ 61.8 µM), the MIC ([11]; ATCC29213, read-out: Minimum inhibitory concentration S.a.^d) was 4 µg/mL (≈ 7.73 µM) and the MIC ([12]; read-out: Antibacterial activity (MIC) CR-AB^j) was 64 µg/mL (≈ 124 µM). For the same compound, the MIC ([13]; MRSA, read-out: Antibacterial activity (MIC) MRSA^f) was 32 µg/mL (≈ 61.8 µM), the MIC ([14]; MRSA, read-out: Antibacterial activity (MIC) MRSA^d) was 64 µg/mL (≈ 124 µM) and the MIC ([15]; MRSA, read-out: Antibacterial activity (MIC) MRSA^c) was 32 µg/mL (≈ 61.8 µM). It also gave an MIC ([16]; MRSA, read-out: Antibacterial activity (MIC) MRSA^b) of 128 µg/mL (≈ 247 µM) and an MIC ([17]; read-out: Antibacterial activity (MIC) MRSE^e) of 128 µg/mL (≈ 247 µM).
